Test results published in US6699896B1, “Oxazole-aryl-carboxylic acids useful in the treatment of insulin resistance and hyperglycemia” (Wyeth, priority 1998, dated 2004).
Marks after values point to notes of the source that are not given here.

What was measured:
diabetic (ob/ob) mice = test: Blood glucose lowering in diabetic (ob/ob) mice; assay type: in vivo, mouse; details: dose 100 mg/Kg, plasma glucose
Excerpt: The procedures used and results obtained are briefly described below.
The non-insulin dependent diabetic (NIDDM) syndrome can be typically characterizes by obesity, hyperglycemia, abnormal insulin secretion, hyperinsulinemia and insulin resistance.
In each test procedure, mice [Male or female ob/ob (C57 B1/6J) and their lean litermates (ob/+ or +/+, Jackson Laboratories) ages 2 to 5 months (10 to 65 g)] of a similar age were randomized according to body weight into 4 groups of 10 mice. The mice were housed 5 per cage and are maintained on normal rodent chow with water ad libitum. Mice received test compound daily by gavage (suspended in 0.5 ml of 0.5% methyl cellulose); dissolved in the drinking water; or admixed in the diet. The dose of compounds given ranges from 2.5 to 200 mg/kg body weight/day. The dose is calculated based on the fed weekly body weight and is expressed as active moiety. […]
On the morning of Day 4, 7 or 14 two drops of blood (approximately 50 ul) were collected into sodium fluoride containing tubes either from the tail vein or after decapitation. […] The plasma was isolated by centrifugation and the concentration of glucose is measured enzymatically on an Abbott V.P. Analyzer.
For each mouse, the percentage change in plasma glucose on Day 4, 7 or 14 is calculated relative to the mean plasma glucose of the vehicle treated mice. […]

Human recombinant PTP1B = biological target: T1, Human recombinant PTP1B (Homo sapiens, UniProt P18031); assay type: biochemical; details: for IC50: recombinant PTP1B, malachite green phosphate detection; for percent of phosphatase control (change) at single concentration: compound at 2.5 uM
T1 construct: made in house
T1 sequence (P18031 1-435): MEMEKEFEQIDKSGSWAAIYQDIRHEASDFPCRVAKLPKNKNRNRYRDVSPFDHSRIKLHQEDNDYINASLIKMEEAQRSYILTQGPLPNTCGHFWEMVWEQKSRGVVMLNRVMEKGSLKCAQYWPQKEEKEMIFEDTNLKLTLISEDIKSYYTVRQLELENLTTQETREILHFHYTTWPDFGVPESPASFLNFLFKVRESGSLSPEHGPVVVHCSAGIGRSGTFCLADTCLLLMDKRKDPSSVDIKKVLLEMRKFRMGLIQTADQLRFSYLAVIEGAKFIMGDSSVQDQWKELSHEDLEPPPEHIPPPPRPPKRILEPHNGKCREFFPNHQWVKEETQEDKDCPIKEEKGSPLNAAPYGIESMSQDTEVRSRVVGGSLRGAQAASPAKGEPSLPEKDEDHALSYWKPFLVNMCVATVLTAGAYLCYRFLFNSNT

[1] = system: rat hepatic microsomal PTPases; details: PTPase activity, compound at 50 μM, rat liver microsomes

Compound | melting point [°C] | IC50 (Human recombinant PTP1B) [nM] | percent of phosphatase control (change) at single concentration (Human recombinant PTP1B) | % Change from Control [1] [%] | % Change Glucose from Vehicle (diabetic (ob/ob) mice)
CC1(COc2ccc(CC3SC(=O)NC3=O)cc2)CCCCC1 (stereo not drawn) [Ciglitazone, 5-(4-(1-methylcyclohexylmethoxy)benzyl)-2,4-dione, reference compound] | – | – | – | – | −43%
COc1ccc(-c2ccc(-c3nc(-c4ccc(C(F)(F)F)cc4)oc3C)cc2)cc1 [Example 1, 4-(4′-Methoxy-biphenyl-4-yl)-5-methyl-2-(4-trifluoromethyl-phenyl)-oxazole] | 167 to 168 | 1660 | – | – | –
COc1ccc(-c2cccc(-c3nc(-c4ccc(C(F)(F)F)cc4)oc3C)c2)cc1 [Example 2, 4-(4′-Methoxy-biphenyl-3-yl)-5-methyl-2-(4-trifluoromethyl-phenyl)-oxazole] | 93 to 94 | – | −47 (2.5 uM) % | – | –
Cc1oc(-c2ccc(C(F)(F)F)cc2)nc1-c1ccc(-c2ccc(O)cc2)cc1 [Example 3, 4′-[5-Methyl-2-(4-trifluoromethyl-phenyl)-oxazol-4-yl]-biphenyl-4-ol] | – | – | −56 (2.5 uM) % | – | –
Cc1oc(-c2ccc(C(F)(F)F)cc2)nc1-c1cccc(-c2ccc(O)cc2)c1 [Example 4, 3′-[5-Methyl-2-(4-trifluoromethyl-phenyl)-oxazol-4-yl]-biphenyl-4-ol] | – | – | – | −28 | –
Cc1oc(-c2ccc(C(F)(F)F)cc2)nc1-c1ccc(-c2ccc(OCC(=O)O)cc2)cc1 [Example 5, {4′-[5-Methyl-2-(4-trifluoromethyl-phenyl)-oxazol-4-yl]-biphenyl-4-yloxy}-acetic Acid] | – | 850 | – | – | −40^a %
Cc1oc(-c2ccc(C(F)(F)F)cc2)nc1-c1ccc(-c2ccc(OC(Cc3ccccc3)C(=O)O)cc2)cc1 (stereo not drawn) [Example 7, 2-{4′-[5-Methyl-2-(4-trifluoromethyl-phenyl)-oxazol-4-yl]-biphenyl-4-yloxy}-3-phenyl-propionic Acid] | – | 1290 | – | −74 | –
Cc1oc(-c2ccc(C(F)(F)F)cc2)nc1-c1cccc(-c2ccc(OC(Cc3ccccc3)C(=O)O)cc2)c1 (stereo not drawn) [Example 8, 2-{3′-[5-Methyl-2-(4-trifluoromethyl-phenyl)-oxazol-4-yl]-biphenyl-4-yloxy}-3-phenyl-propionic Acid] | – | 1250 | – | −78 | –

The next lines start with results.

melting point [°C] | IC50 (Human recombinant PTP1B) [nM] | percent of phosphatase control (change) at single concentration (Human recombinant PTP1B) | % Change from Control [1] [%] | Compound | % Change Glucose from Vehicle (diabetic (ob/ob) mice)
– | 650 | – | −20 | Cc1oc(-c2ccc(C(F)(F)F)cc2)nc1-c1ccc(-c2cc(Br)c(O)c(Br)c2)cc1 [Example 9, 3,5-Dibromo-4′-[5-methyl-2-(4-trifluoromethyl-phenyl)-oxazol-4-yl]-biphenyl-4-ol] | –
– | 470 | – | −35 | Cc1oc(-c2ccc(C(F)(F)F)cc2)nc1-c1ccc(-c2cc(Br)c(OCC(=O)O)c(Br)c2)cc1 [Example 10, {3,5-Dibromo-4′-[5-methyl-2-(4-trifluoromethyl-phenyl)-oxazol-4-yl]-biphenyl-4-yloxy}-acetic Acid] | –
70 to 72 | – | −40 (2.5 uM) % | – | COC(=O)C(Cc1ccccc1)Oc1c(Br)cc(-c2ccc(-c3nc(-c4ccc(C(F)(F)F)cc4)oc3C)cc2)cc1Br (stereo not drawn) [Example 11, 2-{3,5-Dibromo-4′-[5-methyl-2-(4-trifluoromethyl-phenyl)-oxazol-4-yl]-biphenyl-4-yloxy}-3-phenyl-propionic Acid Methyl Ester] | –
– | 130 | – | −68 | Cc1oc(-c2ccc(C(F)(F)F)cc2)nc1-c1ccc(-c2cc(Br)c(OC(Cc3ccccc3)C(=O)O)c(Br)c2)cc1 (stereo not drawn) [Example 12, 2-{3,5-Dibromo-4′-[5-methyl-2-(4-trifluoromethyl-phenyl)-oxazol-4-yl]-biphenyl-4-yloxy}-3-phenyl-propionic Acid] | –
196 to 198 | 1150 | – | – | Cc1oc(-c2ccc(C(F)(F)F)cc2)nc1-c1ccc(-c2ccc(Cn3oc(=O)[nH]c3=O)cc2)cc1 [Example 13, 2-{4′-[5-Methyl-2-(4-trifluoromethyl-phenyl)-oxazol-4-yl]-biphenyl-4-ylmethyl}-[1,2,4]oxadiazolidine-3,5-dione] | –
216 to 218 | – | −65 (2.5 uM) % | – | Cc1oc(-c2ccc(C(F)(F)F)cc2)nc1-c1ccc(-c2cccc(Cn3oc(=O)[nH]c3=O)c2)cc1 [Example 14, 2-{4′-[5-Methyl-2-(4-trifluoromethyl-phenyl)-oxazol-4-yl]-biphenyl-3-ylmethyl}-[1,2,4]oxadiazolidine-3,5-dione] | –
226 to 227 | 930 | – | −47 | Cc1oc(-c2ccc(C(F)(F)F)cc2)nc1-c1ccc(-c2ccc(OCc3nnn[nH]3)cc2)cc1 [Example 15, 5-{4′-[-Methyl-2-(4-trifluoromethyl-phenyl)-oxazol-4-yl]-biphenyl-4-yloxymethyl}-1H-tetrazole] | –
– | 1200 | – | −20 | Cc1oc(-c2ccc(C(F)(F)F)cc2)nc1-c1ccc2c(Br)c(OCC(=O)O)ccc2c1 [Example 16, {1-Bromo-6-[5-methyl-2-(4-trifluoromethyl-phenyl)-oxazol-4-yl]-naphthalen-2-yloxy}-acetic Acid] | –
– | 980 | – | −54 | Cc1oc(-c2ccc(C(F)(F)F)cc2)nc1-c1ccc2c(Br)c(OC(Cc3ccccc3)C(=O)O)ccc2c1 (stereo not drawn) [Example 17, 2-{1-Bromo-6-[5-methyl-2-(4-trifluoromethyl-phenyl)-oxazol-4-yl]-naphthalen-2-yloxy}-3-phenyl-propionic Acid] | –
– | 8700 | – | – | Ammonium molybdate tetrahydrate [reference compound] | –
